Values quoted from earlier work, collected in patent publication US8859560B2, “Treating attention deficit hyperactivity disorder with NHE inhibitors” (The Research Foundation of State University of New York, priority 2012, dated 2014).

Experiments:
[1] = pediatric patients, extended-release tablets (Jain et al. 2011)
[2] = tested on: sodium/hydrogen exchanger (NHE) subtypes; settings: for NHE subtype selectivity of inhibition: prior knowledge from Masereel et al. 2003

| SMILES | Efficacy as drug for ADHD [1] | Inhibition of plasma membrane NHEs ([2]; plasma membrane NHEs (NHE1-NHE5)) | NHE subtype selectivity of inhibition [2] |
| --- | --- | --- | --- |
| Clc1cccc(Cl)c1N=C1NCCN1 [clonidine] | moderately efficacious | modest inhibitor | – |
| C=C[C@H]1C[N@@]2CC[C@H]1C[C@H]2[C@H](O)c1ccnc2ccc(OC)cc12 [quinine] | – | – | selectively inhibits NHE7 |
| COc1ccc2c3c([nH]c2c1)C(C)=NCC3 [harmaline] | – | – | selectively inhibits NHE5 |
| N=C(N)NC(=O)c1nc(Cl)c(N)nc1N [amiloride] | – | – | limited NHE subtype selectivity |
| CC(C)c1ccc(C(=O)NC(=N)N)cc1S(C)(=O)=O [cariporide] | – | – | selectively inhibits NHE1 |
| CC(=Cc1cc(C)ccc1C=C(C)C(=O)NC(=N)N)C(=O)N=C(C)C [S3226] | – | – | selectively inhibits NHE3 |
